Laboratory results reported in ChEMBL document CHEMBL1201862, “PubChem BioAssay data set” (2004).
Activity calls are given as the source filed them.

What was measured:
[1] = molecular target: Beta-lactamase (Pseudomonas aeruginosa, UniProt Q79MP6);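 also: biochemical dose-response test of metallo-beta-lactamase enzyme inhibition, read out by epi-absorbance; purified recombinant IMP-1 metallo-beta-lactamase with nitrocefin as substrate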
[2] = molecular target: Beta-lactamase (Salmonella choleraesuis (strain SC-B67), UniProt Q5J463)
Chain of Beta-lactamase (Salmonella choleraesuis (strain SC-B67), UniProt Q5J463) (Q5J463 whole entry): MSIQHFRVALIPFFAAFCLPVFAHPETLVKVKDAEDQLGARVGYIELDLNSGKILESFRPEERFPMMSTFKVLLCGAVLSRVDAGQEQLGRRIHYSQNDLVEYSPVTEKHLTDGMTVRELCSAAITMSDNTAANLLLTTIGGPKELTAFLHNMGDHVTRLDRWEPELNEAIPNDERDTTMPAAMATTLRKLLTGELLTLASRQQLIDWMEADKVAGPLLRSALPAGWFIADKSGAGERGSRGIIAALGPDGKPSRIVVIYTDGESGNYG

[3] = molecular target: DNA repair and recombination protein RAD54-like (Homo sapiens, UniProt Q92698); assay: RAD54 Holliday junction migration blockers – biochemical, fluorescence, cherry-picked samples, dose series, confirmation (AID 651657); format: functional
Chain of DNA repair and recombination protein RAD54-like (Q92698 whole entry): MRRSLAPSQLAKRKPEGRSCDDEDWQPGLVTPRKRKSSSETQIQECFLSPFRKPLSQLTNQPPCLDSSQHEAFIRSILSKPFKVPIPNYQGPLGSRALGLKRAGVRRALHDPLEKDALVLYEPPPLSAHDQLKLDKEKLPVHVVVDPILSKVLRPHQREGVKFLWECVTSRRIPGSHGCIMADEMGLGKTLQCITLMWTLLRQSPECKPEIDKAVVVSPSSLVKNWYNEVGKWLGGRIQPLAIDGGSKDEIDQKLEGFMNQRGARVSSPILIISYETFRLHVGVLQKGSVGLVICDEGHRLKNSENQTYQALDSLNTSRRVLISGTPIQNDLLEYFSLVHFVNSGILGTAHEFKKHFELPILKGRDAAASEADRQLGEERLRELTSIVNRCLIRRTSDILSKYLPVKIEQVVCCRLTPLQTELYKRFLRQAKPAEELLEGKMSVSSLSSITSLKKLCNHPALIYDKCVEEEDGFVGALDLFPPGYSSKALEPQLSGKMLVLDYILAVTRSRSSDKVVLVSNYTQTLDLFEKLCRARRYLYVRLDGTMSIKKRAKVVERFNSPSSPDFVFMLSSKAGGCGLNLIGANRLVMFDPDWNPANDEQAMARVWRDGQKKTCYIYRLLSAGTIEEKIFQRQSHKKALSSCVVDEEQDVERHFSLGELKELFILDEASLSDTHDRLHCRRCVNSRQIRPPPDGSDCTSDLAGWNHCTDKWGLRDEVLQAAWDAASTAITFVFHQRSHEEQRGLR

[4] = cytotoxicity in HEK293 background cells – cell-based, dry powder, set 2, counter-screen for EBV LMP1 inhibitor project, dose response (AID 624374); format: functional
[5] = molecular target: T1, Protein skinhead-1 (Caenorhabditis elegans, UniProt P34707); format: functional
T1 sequence (P34707 whole entry): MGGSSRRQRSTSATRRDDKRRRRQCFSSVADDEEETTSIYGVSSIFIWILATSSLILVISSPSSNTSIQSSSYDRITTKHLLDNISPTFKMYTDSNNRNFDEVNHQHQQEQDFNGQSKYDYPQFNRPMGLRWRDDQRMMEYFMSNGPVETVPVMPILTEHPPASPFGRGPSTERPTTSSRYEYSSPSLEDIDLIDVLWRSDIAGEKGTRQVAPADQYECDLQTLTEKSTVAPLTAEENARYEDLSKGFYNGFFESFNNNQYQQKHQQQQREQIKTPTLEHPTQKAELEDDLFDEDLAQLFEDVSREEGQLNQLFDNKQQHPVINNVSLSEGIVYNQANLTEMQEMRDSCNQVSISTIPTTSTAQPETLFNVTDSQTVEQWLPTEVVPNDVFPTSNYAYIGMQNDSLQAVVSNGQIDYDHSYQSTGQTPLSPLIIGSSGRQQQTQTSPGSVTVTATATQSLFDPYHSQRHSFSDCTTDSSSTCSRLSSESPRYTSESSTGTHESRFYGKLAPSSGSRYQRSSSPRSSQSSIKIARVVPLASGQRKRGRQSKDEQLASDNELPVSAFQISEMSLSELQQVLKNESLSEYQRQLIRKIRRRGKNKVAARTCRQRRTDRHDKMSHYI

[6] = molecular target: Cytochrome P450 3A4 (Homo sapiens, UniProt P08684);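 also: CYP3A4 tested as one member of a cytochrome P450 panel screen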
Chain of Cytochrome P450 3A4 (P08684 whole entry): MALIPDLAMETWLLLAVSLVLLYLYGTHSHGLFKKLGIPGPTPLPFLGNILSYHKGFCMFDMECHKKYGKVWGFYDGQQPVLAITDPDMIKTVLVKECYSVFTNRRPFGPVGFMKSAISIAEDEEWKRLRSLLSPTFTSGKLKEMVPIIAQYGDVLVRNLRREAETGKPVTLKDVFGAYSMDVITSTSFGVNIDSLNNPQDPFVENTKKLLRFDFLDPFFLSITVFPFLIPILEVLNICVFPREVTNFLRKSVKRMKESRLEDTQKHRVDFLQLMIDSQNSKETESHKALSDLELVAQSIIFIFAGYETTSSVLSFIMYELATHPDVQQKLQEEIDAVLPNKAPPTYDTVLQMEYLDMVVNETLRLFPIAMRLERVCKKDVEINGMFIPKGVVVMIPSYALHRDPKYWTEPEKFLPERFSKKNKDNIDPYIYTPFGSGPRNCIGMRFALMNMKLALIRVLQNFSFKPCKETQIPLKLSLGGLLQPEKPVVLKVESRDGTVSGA

[7] = molecular target: Cytochrome P450 2D6 (Homo sapiens, UniProt P10635);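 also: CYP2D6 member of a cytochrome P450 panel assay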
Chain of Cytochrome P450 2D6 (P10635 whole entry): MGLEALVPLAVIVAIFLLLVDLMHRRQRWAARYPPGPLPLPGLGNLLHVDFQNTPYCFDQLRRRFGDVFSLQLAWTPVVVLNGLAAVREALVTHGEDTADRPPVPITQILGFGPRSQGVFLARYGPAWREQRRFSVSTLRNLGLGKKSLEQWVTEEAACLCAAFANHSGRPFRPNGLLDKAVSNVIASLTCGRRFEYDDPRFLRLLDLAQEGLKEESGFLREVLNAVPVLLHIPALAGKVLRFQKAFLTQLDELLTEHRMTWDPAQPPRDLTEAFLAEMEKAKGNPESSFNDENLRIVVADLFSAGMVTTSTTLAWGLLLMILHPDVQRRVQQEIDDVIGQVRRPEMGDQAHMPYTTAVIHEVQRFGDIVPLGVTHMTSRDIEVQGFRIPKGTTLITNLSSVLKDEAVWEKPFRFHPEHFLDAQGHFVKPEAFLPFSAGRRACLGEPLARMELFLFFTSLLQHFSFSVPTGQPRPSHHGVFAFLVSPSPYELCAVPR

[8] = molecular target: Cytochrome P450 2C9 (Homo sapiens, UniProt P11712)
Chain of Cytochrome P450 2C9 (P11712 whole entry): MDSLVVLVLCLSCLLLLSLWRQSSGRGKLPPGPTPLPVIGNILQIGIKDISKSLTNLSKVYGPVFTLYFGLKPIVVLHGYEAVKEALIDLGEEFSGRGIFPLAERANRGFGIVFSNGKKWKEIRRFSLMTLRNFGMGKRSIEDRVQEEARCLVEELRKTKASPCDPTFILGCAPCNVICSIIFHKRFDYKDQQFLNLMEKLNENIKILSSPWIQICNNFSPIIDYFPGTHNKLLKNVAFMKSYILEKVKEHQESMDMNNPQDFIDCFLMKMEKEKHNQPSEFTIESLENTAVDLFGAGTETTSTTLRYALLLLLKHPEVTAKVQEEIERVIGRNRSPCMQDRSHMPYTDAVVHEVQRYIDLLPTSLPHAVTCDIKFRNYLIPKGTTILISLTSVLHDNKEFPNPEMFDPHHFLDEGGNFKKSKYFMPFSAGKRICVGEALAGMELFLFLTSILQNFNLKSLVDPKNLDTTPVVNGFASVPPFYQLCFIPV

[9] = molecular target: Delta-type opioid receptor (Homo sapiens, UniProt P41143); assay: Counterscreen for agonists of heterodimerization of the mu 1 (OPRM1) and delta 1 (OPRD1) opioid receptors: Luminescence-based cell-based high throughput dose response assay to identify agonists of OPRD1 homodimerization. [Related pubchem assays (depositor defined):AID504326, AID504355, AID504692, AID504904, AID504905]; format: functional
Chain of Delta-type opioid receptor (P41143 whole entry): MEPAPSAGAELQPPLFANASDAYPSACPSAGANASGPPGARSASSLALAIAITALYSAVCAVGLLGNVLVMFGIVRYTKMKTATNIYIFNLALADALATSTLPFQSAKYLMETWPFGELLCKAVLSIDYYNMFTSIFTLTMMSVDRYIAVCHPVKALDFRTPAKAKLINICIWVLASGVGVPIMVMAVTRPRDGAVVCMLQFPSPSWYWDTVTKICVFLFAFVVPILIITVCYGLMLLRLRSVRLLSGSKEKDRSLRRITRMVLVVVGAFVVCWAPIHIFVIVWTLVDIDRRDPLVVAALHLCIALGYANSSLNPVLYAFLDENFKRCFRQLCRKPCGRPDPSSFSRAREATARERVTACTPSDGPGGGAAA

[10] = molecular target: T2, Mu-type opioid receptor (Homo sapiens, UniProt P35372); assay: Counterscreen for agonists of heterodimerization of the mu 1 (OPRM1) and delta 1 (OPRD1) opioid receptors: Luminescence-based cell-based high throughput dose response assay to identify agonists of OPRM1 homodimerization.; format: functional
T2 sequence (P35372 whole entry): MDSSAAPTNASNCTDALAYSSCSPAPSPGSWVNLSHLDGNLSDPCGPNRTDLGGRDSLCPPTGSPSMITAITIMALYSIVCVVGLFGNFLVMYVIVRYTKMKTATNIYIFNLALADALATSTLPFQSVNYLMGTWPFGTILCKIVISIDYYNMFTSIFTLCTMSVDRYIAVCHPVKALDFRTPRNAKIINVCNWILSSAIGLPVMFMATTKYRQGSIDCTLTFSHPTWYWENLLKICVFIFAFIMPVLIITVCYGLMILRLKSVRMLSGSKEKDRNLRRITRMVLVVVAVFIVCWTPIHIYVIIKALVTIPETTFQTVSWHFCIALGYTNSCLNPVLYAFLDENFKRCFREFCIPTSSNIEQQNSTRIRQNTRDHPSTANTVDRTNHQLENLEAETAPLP

[11] = molecular target: 5-hydroxytryptamine receptor 5A (Homo sapiens, UniProt P47898); assay: Counterscreen for agonists of OPRM1-OPRD1 heterodimerization: luminescence-based cell-based high throughput dose response assay to identify agonists of 5-hydroxytryptamine (serotonin) 5A receptor (HTR5A). [Related pubchem assays (depositor defined):AID504326, AID504355, AID504692, AID504904, AID504905]; format: functional
Chain of 5-hydroxytryptamine receptor 5A (P47898 whole entry): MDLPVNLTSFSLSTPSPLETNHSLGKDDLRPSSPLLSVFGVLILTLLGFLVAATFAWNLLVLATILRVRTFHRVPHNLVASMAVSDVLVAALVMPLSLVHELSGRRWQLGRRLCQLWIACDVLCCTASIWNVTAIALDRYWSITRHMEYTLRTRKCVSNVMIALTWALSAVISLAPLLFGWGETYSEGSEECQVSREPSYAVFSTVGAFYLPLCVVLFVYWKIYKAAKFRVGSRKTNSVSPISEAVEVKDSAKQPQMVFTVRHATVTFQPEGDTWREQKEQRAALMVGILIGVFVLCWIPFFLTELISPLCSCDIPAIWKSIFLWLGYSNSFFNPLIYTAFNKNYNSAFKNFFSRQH

[12] = viability loss in HeLa cells – cytotoxicity control for MgcRacGAP inhibitor project, dose response (AID 624300); format: functional
[13] = molecular target: T3, Rac GTPase-activating protein 1 (Homo sapiens, UniProt Q9H0H5); assay: blockers of MgcRacGAP-driven Rac1 GTP hydrolysis – biochemical, ADP Hunter fluorescence, primary and confirmatory, confirmation (AID 624330); format: functional
T3 sequence (Q9H0H5 whole entry): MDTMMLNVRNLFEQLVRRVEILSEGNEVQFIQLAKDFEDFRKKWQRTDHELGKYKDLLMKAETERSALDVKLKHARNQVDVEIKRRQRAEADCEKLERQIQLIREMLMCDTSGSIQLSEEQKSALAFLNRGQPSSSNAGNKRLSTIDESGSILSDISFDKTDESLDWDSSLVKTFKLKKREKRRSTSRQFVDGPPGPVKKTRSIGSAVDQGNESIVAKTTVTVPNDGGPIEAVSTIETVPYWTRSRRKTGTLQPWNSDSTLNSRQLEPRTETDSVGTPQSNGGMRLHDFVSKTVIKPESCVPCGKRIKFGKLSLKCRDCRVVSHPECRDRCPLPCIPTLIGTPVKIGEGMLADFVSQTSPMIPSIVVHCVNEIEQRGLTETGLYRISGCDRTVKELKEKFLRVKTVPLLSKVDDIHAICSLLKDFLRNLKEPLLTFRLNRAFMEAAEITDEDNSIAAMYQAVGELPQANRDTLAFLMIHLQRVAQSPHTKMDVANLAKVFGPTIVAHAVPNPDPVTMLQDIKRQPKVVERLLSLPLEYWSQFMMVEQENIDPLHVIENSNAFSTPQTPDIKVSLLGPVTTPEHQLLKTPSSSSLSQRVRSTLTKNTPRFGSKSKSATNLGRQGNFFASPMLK

[14] = tested on: HeLa; assay: ATP-based viability loss in HeLa cells – cell-based, CellTiter-Glo luminescence, cherry-pick samples, cytotoxicity control for MITF activator project, dose response (AID 540259); format: functional; settings: Homo sapiens
[15] = molecular target: T4, Corticotropin-releasing factor receptor 2/Corticotropin-releasing factor-binding protein (Homo sapiens, UniProt P24387+Q13324); assay: Dose Response confirmation of uHTS hits for small molecule antagonists of the CRF-binding protein and CRF-R2 receptor complex.; format: functional; settings: read-out: IC50_Mean
T4 sequence (Q13324 whole entry): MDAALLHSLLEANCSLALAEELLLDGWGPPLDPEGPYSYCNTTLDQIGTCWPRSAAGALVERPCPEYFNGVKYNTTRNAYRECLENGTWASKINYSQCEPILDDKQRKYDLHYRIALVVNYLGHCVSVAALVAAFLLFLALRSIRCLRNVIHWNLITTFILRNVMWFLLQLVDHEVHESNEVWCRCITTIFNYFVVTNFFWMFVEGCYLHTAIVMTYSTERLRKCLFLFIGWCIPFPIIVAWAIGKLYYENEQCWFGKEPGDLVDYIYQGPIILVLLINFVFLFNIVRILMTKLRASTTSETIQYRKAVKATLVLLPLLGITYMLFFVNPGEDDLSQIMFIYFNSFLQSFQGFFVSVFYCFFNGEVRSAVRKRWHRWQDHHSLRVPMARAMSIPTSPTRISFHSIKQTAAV
T4 sequence (P24387 whole entry): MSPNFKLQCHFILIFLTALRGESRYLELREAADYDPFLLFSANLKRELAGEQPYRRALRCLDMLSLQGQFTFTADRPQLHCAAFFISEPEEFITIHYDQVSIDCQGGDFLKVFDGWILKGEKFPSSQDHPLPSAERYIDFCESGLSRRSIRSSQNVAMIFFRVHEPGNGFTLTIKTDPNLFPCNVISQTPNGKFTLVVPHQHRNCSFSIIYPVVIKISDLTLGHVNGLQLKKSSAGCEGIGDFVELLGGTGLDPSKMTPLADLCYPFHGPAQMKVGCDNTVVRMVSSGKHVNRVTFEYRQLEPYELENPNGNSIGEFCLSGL

[16] = molecular target: T4, Corticotropin-releasing factor receptor 2/Corticotropin-releasing factor-binding protein; assay: activators of CRF receptor 2 with binding protein – uHTS hits, confirmation (AID 602473); format: functional; settings: read-out: EC50_Mean
[17] = blockers of CRF-binding protein–CRF-R2 complex – cell-based, uHTS hits, 384-well, dose response (AID 651639); format: functional, Homo sapiens; settings: read-out: IC50_Mean
[18] = molecular target: T2, Mu-type opioid receptor; format: functional, cell-based
[19] = molecular target: 5-hydroxytryptamine receptor 2A (Mus musculus, UniProt P35363); format: functional, cell-based;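 also: CHO-K1 cells with tagged receptor and beta-arrestin; agonist potency measured as compound-induced activation of the receptor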
Chain of 5-hydroxytryptamine receptor 2A (P35363 whole entry): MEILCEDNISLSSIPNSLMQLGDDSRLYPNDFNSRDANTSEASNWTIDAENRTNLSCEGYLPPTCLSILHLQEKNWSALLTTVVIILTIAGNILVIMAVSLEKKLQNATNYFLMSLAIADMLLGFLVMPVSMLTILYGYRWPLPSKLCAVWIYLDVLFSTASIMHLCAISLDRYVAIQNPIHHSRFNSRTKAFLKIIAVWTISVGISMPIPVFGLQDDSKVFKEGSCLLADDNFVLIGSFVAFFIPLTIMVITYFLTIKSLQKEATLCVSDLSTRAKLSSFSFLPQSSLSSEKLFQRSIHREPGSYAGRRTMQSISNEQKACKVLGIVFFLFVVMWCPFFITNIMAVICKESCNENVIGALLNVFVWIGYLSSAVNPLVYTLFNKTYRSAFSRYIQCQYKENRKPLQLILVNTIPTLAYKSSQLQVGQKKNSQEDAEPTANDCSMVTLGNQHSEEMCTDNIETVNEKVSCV

Chain of Beta-lactamase (Pseudomonas aeruginosa, UniProt Q79MP6) (Q79MP6 whole entry): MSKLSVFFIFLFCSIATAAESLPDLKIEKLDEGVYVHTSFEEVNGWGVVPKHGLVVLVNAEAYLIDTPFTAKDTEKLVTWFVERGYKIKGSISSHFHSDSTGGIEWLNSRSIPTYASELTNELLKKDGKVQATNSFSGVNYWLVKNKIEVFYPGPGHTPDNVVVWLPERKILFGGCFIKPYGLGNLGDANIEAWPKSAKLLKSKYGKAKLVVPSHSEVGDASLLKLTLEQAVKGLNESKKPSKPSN

SMILES: COc1ccc2c(Cl)c(C(=O)NCCCn3ccnc3)sc2c1Cl
- IC50 [1]: > 59.6 µM (inactive)
- IC50 [2]: > 59.6 µM (inactive)

SMILES: O=C(Nc1cccc(Br)c1)c1cc(S(=O)(=O)N2CCOCC2)cs1
- AC50 [3]: 72.5 µM (active)

SMILES: C[C@H](NC(=O)C[C@H]1C=C[C@H](NC(=O)Cc2ccccn2)[C@H](CO)O1)c1ccccc1
- AbsAC35 [4]: 200 µM

SMILES: CCOC(=O)NCc1ccc2c(c1)cc(C)n2C
- IC50 [5]: > 100 µM (inactive)
- AC50 [6]: 14.1 µM (inconclusive)
- AC50 [7]: inconclusive
- AC50 [8]: inconclusive

SMILES: C[C@H](CO)N1C[C@H](C)[C@H](CN(C)Cc2ccc(Oc3ccccc3)cc2)Oc2ccc(NC(=O)CCCN(C)C)cc2C1=O
- AbsAC35 [4]: 286.99 µM

SMILES: Cc1ccc2c(Cl)c(Cc3ccccc3)c(=S)[nH]c2n1
- EC50 [9]: > 92.5 µM (inactive)
- EC50 [10]: > 92.5 µM (inactive)
- EC50 [11]: > 92.5 µM (inactive)

SMILES: COc1ccc(C(CNC(=O)c2cc3ccccc3cc2O)N2CCOCC2)cc1 (stereo unspecified)
- CC50 [12]: 100 µM (active)
- IC50 [13]: 77 µM (active)

SMILES: CN(CC(=O)Nc1ccccc1Br)C(=O)c1cc2c(s1)CCCCC2
- AC50 [14]: > 350 µM (inactive)

SMILES: Cc1nc(NC(C)C)c2cnn(CCc3ccccc3)c2n1
- AC50 [14]: 84.6 µM (active)

SMILES: Cc1ccc(S(=O)(=O)NC(=Nc2ccc([N+](=O)[O-])cc2[N+](=O)[O-])c2ccccc2)cc1
- IC50 [15]: 9.98 µM (active)
- EC50 [16]: > 53 µM (inactive)
- IC50 [17]: > 20 µM (inactive)

SMILES: COc1ccc(S(=O)(=O)NCC(c2ccc3c(c2)OCO3)N2CCN(c3ccccc3)CC2)cc1 (stereo unspecified)
- EC50 [18]: 92.5 µM (inactive)
- EC50 [19]: 17.2 µM (inactive)
